According to EP3262036B1, “THERAPEUTIC PYRIDAZINE COMPOUNDS AND USES THEREOF” (priority 2015, dated 2016):
Counter-ions that a name gives are not always drawn.

target: BRG1 (Homo sapiens, UniProt P51532); assay: biochemical; assay type: binding; details: BRG1 HTRF IC50 (µM)
Excerpt: IC50 measurements for inhibitors using BRG1 TR-FRET Binding Assay

Chain of BRG1 (P51532 1448-1575): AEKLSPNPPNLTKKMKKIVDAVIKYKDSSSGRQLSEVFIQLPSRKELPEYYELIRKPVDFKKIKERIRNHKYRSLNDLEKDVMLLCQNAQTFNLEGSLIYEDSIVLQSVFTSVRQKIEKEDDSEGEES

First: Nc1nnc(-c2ccccc2O)cc1N1CCN(C(=O)c2cncs2)C(CO)C1 (stereo not drawn) [Example 143, (4-(3-amino-6-(2-hydroxyphenyl)pyridazin-4-yl)-2-(hydroxymethyl)piperazin-1-yl)(thiazol-5-yl)methanone]
Second: C[C@H]1CN(c2cc(-c3ccccc3O)nnc2N)CCN1C(=O)c1cccnc1 [Example 155]
The IC50 of the first is 8.1-fold lower: 0.0206 µM for the first, 0.166 µM for the second. The first is the more potent here.

`C[C@@H]1CN(c2cc(-c3ccccc3O)nnc2N)CCN1C(=O)C(C)(C)O` [Example 145, (R)-1-(4-(3-amino-6-(2-hydroxyphenyl)pyridazin-4-yl)-2-methylpiperazin-1-yl)-2-hydroxy-2-methylpropan-1-one] and `C[C@H]1CN(c2cc(-c3ccccc3O)nnc2N)CCN1C(=O)C(C)(C)O` [Example 146, (S)-1-(4-(3-amino-6-(2-hydroxyphenyl)pyridazin-4-yl)-2-methylpiperazin-1-yl)-2-hydroxy-2-methylpropan-1-one] are within 1.5-fold of each other in IC50: 0.0642 µM for the first, 0.0458 µM for the second.

`CNC(=O)CN1CCN(c2cc(-c3ccccc3O)nnc2N)C[C@H]1C` [Example 148, (R)-2-(4-(3-amino-6-(2-hydroxyphenyl)pyridazin-4-yl)-2-methylpiperazin-1-yl)-N-methylacetamide] and `CC1CN(c2cc(-c3ccccc3O)nnc2N)CCN1C(=O)CN(C)C` (stereo not drawn) [Example 162, 1-(4-(3-amino-6-(2-hydroxyphenyl)pyridazin-4-yl)-2-methylpiperazin-1-yl)-2-(dimethylamino)ethanone] are within 1.5-fold of each other in IC50: 0.0613 µM for the first, 0.0586 µM for the second.

`C[C@@H]1CN(c2cc(-c3ccccc3O)nnc2N)CCN1C(=O)c1cccnc1` [Example 156] and `CC(C)[C@H](N)C(=O)N1CCN(c2cc(-c3ccccc3O)nnc2N)C[C@H]1C` [Example 157, 2-Amino-1-((R)-4-(3-amino-6-(2-hydroxyphenyl)pvridazin-4-yl)-2-methylpiperazin-1-yl)-3-methylbutan-1-one] are within 1.5-fold of each other in IC50: 0.0435 µM for the first, 0.0296 µM for the second.

`CC(C)[C@H](N)C(=O)N1CCN(c2cc(-c3ccccc3O)nnc2N)C[C@@H]1C` [Example 158, 2-Amino-1-((R)-4-(3-amino-6-(2-hydroxyphenyl)pvridazin-4-yl)-2-methylpiperazin-1-yl)-3-methylbutan-1-one] and `CC(=O)N1CCC(c2cc(-c3ccccc3O)nnc2N)CC1` [Example 227, 1-(4-(3-amino-6-(2-hydroxyphenyl)pyridazin-4-yl)piperidin-1-yl)ethanone] are within 1.5-fold of each other in IC50: 0.113 µM for the first, 0.0848 µM for the second.

`CC(Oc1cc(-c2ccccc2O)nnc1N)C(C)(C)C` (stereo not drawn) [Example 164, 2-(6-amino-5-((3,3-dimethylbutan-2-yl)oxy)pyridazin-3-yl)phenol] and `C[C@@H](Oc1cc(-c2ccccc2O)nnc1N)c1cccnc1` [Example 166, (R)-2-(6-amino-5-(1-(pyridin-3-yl)ethoxy)pyridazin-3-yl)phenol] are within 1.5-fold of each other in IC50: 0.143 µM for the first, 0.132 µM for the second.

First: Nc1nnc(-c2ccccc2O)cc1O[C@H]1CCCC[C@@H]1c1ccccc1 [Example 165, 2-(6-amino-5-(((1,2-trans)-2-phenylcyclohexyl)oxy)pyridazin-3-yl)phenol]
Second: Nc1nnc(-c2ccccc2O)cc1OC1CCCN(c2ccccc2)C1 (stereo not drawn) [Example 183, 2-(6-amino-5-((1-phenylpiperidin-3-yl)oxy)pyridazin-3-yl)phenol]
The IC50 of the first is 57-fold higher: 0.977 µM for the first, 0.0172 µM for the second.

Going from `C[C@H](Oc1cc(-c2ccccc2O)nnc1N)c1cccnc1` [Example 167, (S)-2-(6-amino-5-(1-(pyridin-3-yl)ethoxy)pyridazin-3-yl)phenol] to `CC(Oc1cc(-c2ccccc2O)nnc1N)c1cccnc1` (stereo not drawn) [Example 171, 2-(6-amino-5-(1-(pyridin-3-yl)ethoxy)pyridazin-3-yl)phenol], the IC50 rises from 0.0251 µM to 0.0792 µM (3.2-fold).

First: CN1CCC(Oc2cc(-c3ccccc3O)nnc2N)CC1 [Example 172, 2-(6-amino-5-((1-methylpiperidin-4-yl)oxy)pyridazin-3-yl)phenol]
Second: Nc1nnc(-c2ccccc2O)cc1OC1CCCC1 [Example 176, 2-(6-amino-5-(cyclopentyloxy)pyridazin-3-yl)phenol]
The IC50 of the first is 4.3-fold higher: 0.161 µM for the first, 0.0371 µM for the second.

Going from `CN(C)CCCOc1cc(-c2ccccc2O)nnc1N` [Example 175, 2-(6-amino-5-(3-(dimethylamino)propoxy)pyridazin-3-yl)phenol] to `Nc1nnc(-c2ccccc2O)cc1C1CC1` [Example 190, 2-(6-amino-5-cyclopropylpyridazin-3 - yl)phenol], the IC50 falls from 0.117 µM to 0.0176 µM (6.6-fold). The second is the more potent here.

`Nc1nnc(-c2ccccc2O)cc1OC1CCCCC1` [Example 179, 2-(6-amino-5-(cyclohexyloxy)pyridazin-3-yl)phenol] and `Nc1nnc(-c2ccccc2O)cc1OC1CCCN(Cc2ccccc2)C1` (stereo not drawn) [Example 181, 2-(6-amino-5-((1-benzylpiperidin-3-yl)oxy)pyridazin-3-yl)phenol] are within 1.5-fold of each other in IC50: 0.0451 µM for the first, 0.0337 µM for the second.

Going from `Nc1nnc(-c2ccccc2O)cc1OC1CCc2ccccc21` (stereo not drawn) [Example 182, 2-(6-amino-5-((2,3-dihydro-1H-inden-1-yl)oxy)pyridazin-3-yl)phenol] to `Nc1nnc(-c2ccccc2O)cc1OC1CCN(c2ccccc2)C1` (stereo not drawn) [Example 184, 2-(6-amino-5-((1-phenylpyrrolidin-3-yl)oxy)pyridazin-3-yl)phenol], the IC50 falls from 0.606 µM to 0.192 µM (3.2-fold).

First: Nc1nnc(-c2ccccc2O)cc1OC1CCCN(C(=O)c2ccccc2)C1 (stereo not drawn) [Example 185, (3-((3-amino-6-(2-hydroxyphenyl)pyridazin-4-yl)oxy)piperidin-1-yl)(phenyl)methanone]
Second: Nc1nnc(-c2ccccc2O)cc1C1CCCN(Cc2ccccc2)C1 (stereo not drawn) [Example 214, 2-[6-amino-5-(1-benzyl-3-piperidyl)pyridazin-3-yl]phenol]
The IC50 of the first is 5.7-fold higher: 0.641 µM for the first, 0.112 µM for the second.

First: Cn1nccc1-c1cc(-c2ccccc2O)nnc1N [Example 193, 2-(6-amino-5-(1-methyl-1H-pyrazol-5-yl)pyridazin-3-yl)phenol]
Second: CC(C(=O)N(C)C)n1cc(-c2cc(-c3ccccc3O)nnc2N)cn1 (stereo not drawn) [Example 194, 2-(4-(3-amino-6-(2-hydroxyphenyl)pyridazin-4-yl)-1 H-pyrazol-1-yl)-N,N-dimethylpropanamide]
The IC50 of the first is 44-fold higher: 1.08 µM for the first, 0.0247 µM for the second. The second is the more potent here.

`C[C@H](C(=O)N(C)C)n1cc(-c2cc(-c3ccccc3O)nnc2N)cn1` [Example 195, 2-(4-(3-Amino-6-(2-hvdroxyphenyl)pyridazin-4-vl)-1H-pvrazol-1-yl)-N,N-dimethylpropanamide] and `C[C@@H](C(=O)N(C)C)n1cc(-c2cc(-c3ccccc3O)nnc2N)cn1` [Example 196, 2-(4-(3-Amino-6-(2-hvdroxyphenyl)pyridazin-4-vl)-1H-pvrazol-1-yl)-N,N-dimethylpropanamide] are within 1.5-fold of each other in IC50: 0.0217 µM for the first, 0.0247 µM for the second.

Going from `CC(C(=O)N(C)C)n1cnc(-c2cc(-c3ccccc3O)nnc2N)c1` (stereo not drawn) [Example 197, 2-(4-(3-amino-6-(2-hydroxyphenyl)pyridazin-4-yl)-1H-imidazol-1-yl)-N,N-dimethylpropanamide] to `CC(C)(C)OC(=O)N1CCC(c2cc(-c3ccccc3O)nnc2N)C1` (stereo not drawn) [Example 212, tert-butyl 3-(3-amino-6-(2-hydroxyphenyl)pyridazin-4-yl)pyrrolidine-1-carboxylate], the IC50 rises from 0.0339 µM to 0.0694 µM (2-fold).

First: Nc1ccc(-c2ccccc2O)nn1 [Example 203, 2-(6-aminopyridazin-3-yl)phenol]
Second: CC(=O)Nc1ccc(-c2ccccc2O)nn1 [Example 205, N-(6-(2-hydroxyphenyl)pyridazin-3-yl)acetamide]
The IC50 of the first is 3.2-fold lower: 0.335 µM for the first, 1.08 µM for the second. The first is the more potent here.

Going from `CN1CCC(c2cc(-c3ccccc3O)nnc2N)CC1` [Example 211, 2-(6-amino-5-(1-methylpiperidin-4-yl)pyridazin-3-yl)phenol] to `CN1CCC(c2cc(-c3ccccc3O)nnc2N)C1` (stereo not drawn) [Example 216, 2-(6-amino-5-(1-methylpyrrolidin-3-yl)pyridazin-3-yl)phenol 2,2,2-trifluoroacetate], the IC50 rises from 0.183 µM to 0.765 µM (4.2-fold). The first is the more potent here.

Compared with `Nc1nnc(-c2ccccc2O)cc1C1CCOCC1` [Example 213, 2-(6-amino-5-(tetrahydro-2H-pyran-4-yl)pyridazin-3-yl)phenol], `Nc1nnc(-c2ccccc2O)cc1C1CCNC1` (stereo not drawn) [Example 215, 2-(6-amino-5-(pyrrolidin-3-yl)pyridazin-3-yl)phenol hydrochloride] is 12-fold higher in IC50: 0.0611 µM for the first, 0.743 µM for the second.

First: Cc1ccc(S(=O)(=O)N2CCC(c3cc(-c4ccccc4O)nnc3N)CC2)cc1 [Example 219, 2-(6-amino-5-(1-tosylpiperidin-4-yl)pyridazin-3-yl)phenol]
Second: Nc1nnc(-c2ccccc2O)cc1C1CCN(S(=O)(=O)c2ccccc2)CC1 [Example 224, 2-(6-amino-5-(1-(phenylsulfonyl)piperidin-4-yl)pyridazin-3-yl)phenol]
The IC50 of the first is 6-fold higher: 0.36 µM for the first, 0.0602 µM for the second. The second is the more potent here.

Going from `Cc1ccc(S(=O)(=O)N2CC=C(c3cc(-c4ccccc4O)nnc3N)CC2)cc1` [Example 222, 2-(6-amino-5-(1-tosyl-1,2,3,6-tetrahydropyridin-4-yl)pyridazin-3-yl)phenol] to `Nc1nnc(-c2ccccc2O)cc1C1=CCN(Cc2ccccc2)CC1` [Example 223, 2-(6-amino-5-(1-benzyl-1,2,3,6-tetrahydropyridin-4-yl)pyridazin-3-yl)phenol], the IC50 falls from 0.0889 µM to 0.0205 µM (4.3-fold).

`CS(=O)(=O)N1CCC(c2cc(-c3ccccc3O)nnc2N)CC1` [Example 228, 2-(6-amino-5-(1-(methylsulfonyl)piperidin-4-yl)pyridazin-3-yl)phenol] and `CC(C)(O)C(=O)N1CCC(c2cc(-c3ccccc3O)nnc2N)CC1` [Example 229, 1-(4-(3-amino-6-(2-hydroxyphenyl)pyridazin-4-yl)piperidin-1-yl)-2-hydroxy-2-methylpropan-1-one] are within 1.5-fold of each other in IC50: 0.0537 µM for the first, 0.0437 µM for the second.

Compared with `Nc1nnc(-c2cc(F)ccc2O)cc1-c1ccccc1` [Example 230, 2-(6-amino-5-phenylpyridazin-3-yl)-4-fluorophenol], `Nc1nnc(-c2ccc(F)cc2O)cc1-c1ccccc1` [Example 231, 2-(6-amino-5-phenylpyridazin-3-yl)-5-fluorophenol] is 18-fold higher in IC50: 0.0549 µM for the first, 0.995 µM for the second.

Compared with `Nc1nnc(-c2cc(F)cc(F)c2O)cc1-c1ccccc1` [Example 232, 2-(6-amino-5-phenylpyridazin-3-yl)-4,6-difluorophenol], `Nc1nnc(-c2c(O)cccc2F)cc1-c1ccccc1` [Example 233, 2-(6-amino-5-phenylpyridazin-3-yl)-3-fluorophenol] is 2.5-fold higher in IC50: 0.176 µM for the first, 0.435 µM for the second.
